Assay results reported in patent US6225478A, “Iridoid derivatives and neovascularization inhibitors containing the same as active ingredient” (Tsumura & Co., priority 1999, dated 2001).
Values after ≈ are worked out from the molar mass of the structure shown.

Assays:
Format in all cases: cell-based
[1] = tested on: human umbilical-vein endothelial cells (HUVEC); assay: Tube Formation Assay (TFA) Test, HUVEC in collagen gel; conditions: Homo sapiens, HUVEC, 20 h, 20 hours, 40% or less judged remarkable, read-out: TFA (inhibition rate, %); for inhibition at 1 µg/mL: 1 μg/ml; for inhibition at 10 µg/mL: 10 μg/ml
In short: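 HUVEC (7th subculture, 1×10^5 cells/ml) attached to collagen gel for 2 h at 37 °C, given sample and overlaid with collagen, then cultured 20 h at 37 °C, 5% CO2 in M-199 with 20% FCS, 30 ng/ml b-FGF and 0.1 μM PMA. Tube length measured by image analysis; % inhibition relative to positive and negative controls.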

[2] = tested on: human umbilical-vein endothelial cells (HUVEC); assay: Cell Migration Assay (CMA) Test, HUVEC (% relative to control); conditions: Homo sapiens, HUVEC, 24 hours, 60% or less = remarkable inhibition, read-out: CMA (% relative to control); for activity at 1 µg/mL: 1 μg/ml; for activity at 10 µg/mL: 10 μg/ml
In short: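 Confluent 7th-subculture HUVEC monolayers scraped with razor blade, then given M199 (2+) plus 40 or 4 μl of 1 mg/ml sample (in 5% DMSO-PBS) per 4.0 ml medium for 24 h at 37 °C. Methanol-fixed, Giemsa-stained; newly migrated cells counted microscopically in 1 mm×1 mm blocks, expressed versus M199 (2+) control.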

[3] = tested on: human umbilical-vein endothelial cells (HUVEC); assay: Cell Proliferation Assay (CPA) Test, HUVEC, MTT; conditions: Homo sapiens, M199 (2+) medium, read-out: CPA (IC50 μg/ml)
Protocol: Furthermore, the sample liquids of compounds used in the CPA and CMA tests were prepared in the manner described below. Firstly, after weighing out each compound, a calculated amount of DMSO was added. After dissolving the compound in the DMSO, phosphate buffered physiological saline (PBS (-)) was added to bring the sample concentration to 1 mg/ml in PBS (-). The amount of DMSO used to dissolve the compounds was adjusted in advance to that the concentration of DMSO at that time was 5%. The resulting liquids were diluted 10-fold with 5% DMSO-PBS (-) solution to prepare sample solutions having a concentration of 0.1 mg/ml. In the TFA test, 320 μl of the prepared 1 mg/ml sample solutions were removed followed by addition of 680 μl of PBS (-) to prepare samples having a concentration of […]. Moreover, 100 μl of this solution was removed followed by addition of 900 μl of PBS (-) to dilute 10-fold and prepare samples having a concentration of 1 μg/ml. P [Cell Proliferation Assay (CPA) Test]
100 μl of the 7th subculture obtained from first generation human umbilical-vein endothelial cells (HUVEC) were disseminated in the wells (N=3) of a 96-well plate (Iwaki, Cat. #4860-010) at a cell concentration of 5×10^4 cells/ml. M-199 medium containing +20% FCS, 10 ng/ml of b-FGF and 10 ng/ml of EGF (abbreviated as "M199 (2+)") was used for the medium.
After culturing for 24 hours at 37° C. in the presence of 5% CO2 under the above conditions, 20 μl/well of MTT solution (solution containing 5 mg/ml of PBS (-)) were added to the control well followed by accurately culturing for 4 hours at 37° C. in the presence of 5% CO2. Following completion of culturing, 100 μl/well of a stop solution (0.001 N aqueous HCl solution containing 10% SDS) were added. On the other hand, 10 μl/well of sample solutions at concentrations of 1 mg/ml and 0.1 mg/ml were added to the other wells.
After culturing for 24 hours at 37° C. in the presence of 5% CO2, the medium was replaced and 100 μl/well of M199 (2+) were added. The samples were also replaced in each well at this time.
Moreover, after additionally culturing for 48 hours at 37° C. in the presence of 5% CO2, 20 μl/well of MTT solution were added to the wells containing sample and the control well followed by accurately culturing for 4 hours at 37° C. and adding 100 μl/well of stop solution.

Structure (SMILES)	inhibition at 1 µg/mL [1]	inhibition at 10 µg/mL [1]	activity at 1 µg/mL [2]	activity at 10 µg/mL [2]	IC50 [3]
CNC(=O)OC1OC=C(C(=O)OCc2ccco2)C2CC3OC3(C)C12 [compound 10, (1S,4aS,6S,7R,7aR)-6,7-epoxy-1,4a,5,6,7,7a-hexahydro-7-methyl-1-(methylcarbamoyloxy) cyclopenta [c]-pyrane-4-carboxy-lic acid furfurylester]	28.6%	27.7%	101%	103%	93.3 µg/mL (≈ 267 µM)
CNC(=O)O[C@@H]1OC=C(C(=O)OCc2ccccc2)[C@H]2C[C@@H]3O[C@]3(C)[C@H]12 [compound 11, (1S,4aS,6S,7R,7aR)-6,7-epoxy-7-methyl-1-(methylcarbamoyloxy)-1,4a,5,6,7,7a-hexahydrocyclopenta [c]-pyrane-4-carboxylic acid benzyl ester]	20.7%	40.3%	102%	85.5%	> 100 µg/mL
CNC(=O)O[C@@H]1OC=C(C(=O)OCCc2ccccc2)[C@H]2C[C@@H]3O[C@]3(C)[C@H]12 [compound 12, (1S,4aS,6S,7R,7aR)-6,7-epoxy-1,4a,5,6,7,7a-hexahydro-7-methyl-1-(methylcarbamoyloxy) cyclopenta [c]-pyrane-4-carboxylic acid phenylethylester]	32.7%	32.5%	101%	89.8%	> 100 µg/mL
CNC(=O)O[C@@H]1OC=C(C(=O)Oc2ccccc2)[C@H]2C[C@@H]3O[C@]3(C)[C@H]12 [compound 13, (1S,4aS,6S,7R,7aR)-6,7-epoxy-1,4a,5,6,7,7a-hexahydro-7-methyl-1-(methylcarbamoyloxy) cyclopenta [c]-pyrane-4-carboxylic acid phenylester]	36.3%	36.8%	94.1%	94%	53.3 µg/mL (≈ 154 µM)
CNC(=O)O[C@@H]1OC=C(C(=O)OC2CCCCC2)[C@H]2C[C@@H]3O[C@]3(C)[C@H]12 [compound 14, (1S,4aS,6S,7R,7aR)-6,7-epoxy-1,4a,5,6,7,7a-hexahydro-7-methyl-1-(methylcarbamoyloxy) cyclopenta [c]-pyrane-4-carboxylic acid cyclohexylester]	38.2%	48.7%	99.4%	102%	> 100 µg/mL
CNC(=O)O[C@@H]1OC=C(C(=O)NC)[C@H]2C[C@@H]3O[C@]3(C)[C@H]12 [compound 15, (1S,4aS,6S,7R,7aR)-6,7-epoxy-1,4a,5,6,7,7a-hexahydro-7-methyl-1-(methylcarbamoyloxy) cyclopenta [c]-pyrane-4-carboxylic acid methylamide]	-16%	-8%	71.1%	58.3%	> 100 µg/mL
CCNC(=O)C1=CO[C@@H](OC(=O)NC)[C@@H]2[C@@H]1C[C@@H]1O[C@]21C [compound 16, (1S,4aS,6S,7R,7aR)-6,7-epoxy-1,4a,5,6,7,7a-hexahydro-7-methyl-1-(methylcarbamoyloxy) cyclopenta [c]-pyrane-4-carboxylic acid ethylamide]	30.7%	21.6%	98.1%	102%	> 100 µg/mL
CCCCCCNC(=O)C1=COC(OC(=O)NC)C2C1CC1OC12C [compound 17, (1S,4aS,6S,7R,7aR)-6,7-epoxy-1,4a5 6,7,7a-hexahydro-7-methyl-1-(methylcarbamoyloxy) cyclopenta [c]-pyrane-4-carboxylic acid n-hexylamide]	19%	23.4%	94.4%	114%	69.1 µg/mL (≈ 196 µM)
CNC(=O)OC1OC=C(C(=O)N(C)C)C2CC3OC3(C)C12 (centres unmarked) [compound 18]	28.6%	27.7%	90.3%	71.5%	> 100 µg/mL
CCN(CC)C(=O)C1=CO[C@@H](OC(=O)NC)[C@@H]2[C@@H]1C[C@@H]1O[C@]21C [compound 19, (1S,4aS,6S,7R,7aR)-6,7-epoxy-1,4a,5,6,7,7a-hexahydro-7-methyl-1-(methylcarbamoyloxy) cyclopenta [c]-pyrane-4-carboxylic acid diethylamide]	23.6%	21.3%	96.4%	93.5%	> 100 µg/mL
CNC(=O)OC1OC=C(C(=O)N2CCN(C)CC2)C2CC3OC3(C)C12 [compound 20, (1S,4aS,6S,7R,7aR)-6,7-epoxy-1,4a,5,6,7,7a-hexahydro-7-methyl-1-(methylcarbamoyloxy) cyclopenta [c]-pyrane-4-carboxylic acid 4-methylpiperazylamide]	34.3%	19.6%	97.4%	89.5%	> 100 µg/mL
CNC(=O)O[C@@H]1OC=C(C(=O)NC2CCCCC2)[C@H]2C[C@@H]3O[C@]3(C)[C@H]12 [compound 21, (1S,4aS,6S,7R,7aR)-6,7-epoxy-1,4a,5,6,7,7a-hexahydro-7-methyl-1-(methylcarbamoyloxy) cyclopenta [c]-pyrane-4-carboxylic acid cyclohexylamide]	29.5%	23.2%	105%	101%	> 100 µg/mL
CNC(=O)OC1OC=C(C(=O)N2CCN(CCO)CC2)C2CC3OC3(C)C12 [compound 22, (1S,4aS,6S,7R,7aR)-6,7-epoxy-1,4a,5,6,7,7a-hexahydro-7-methyl-1-(methylcarbamoyloxy) cyclopenta [c]-pyrane-4-carboxylic acid 4-(2-hydroxyethyl) piperazylamide]	50.8%	74.9%	93.4%	97.7%	> 100 µg/mL
CNC(=O)OC1OC=C(C(=O)N2CC(C)OC(C)C2)C2CC3OC3(C)C12 [compound 24, (1S,4aS,6S,7R,7aR)-6,7-epoxy-1,4a,5,6,7,7a-hexahydro-7-methyl-1-(methylcarbamoyloxy) cyclopenta [c]-pyrane-4-carboxylic acid 2,6-dimethylmorpholylamide]	41.3%	24.2%	96.9%	112%	> 100 µg/mL
CNC(=O)OC1OC=C(C(=O)N2CCCC2)C2CC3OC3(C)C12 [compound 25, (1S,4aS,6S,7R,7aR)-6,7-epoxy-1,4a,5,6,7,7a-hexahydro-7-methyl-1-(methylcarbamoyloxy) cyclopenta [c]-pyrane-4-carboxylic acid pyrrolidylamide]	31.8%	14.5%	91.8%	87.5%	> 100 µg/mL
CNC(=O)OC1OC=C(C(=O)N2CCCCC2)C2CC3OC3(C)C12 [compound 26, (1S,4aS,6S,7R,7aR)-6,7-epoxy-1,4a,5,6,7,7a-hexahydro-7-methyl-1-(methylcarbamoyloxy) cyclopenta [c]-pyrane-4-carboxylic acid piperidylamide]	41.2%	30.8%	84%	104%	> 100 µg/mL
